Results from patent publication US20240279710A1, “FLUORESCENT PROBES” (TOHOKU TECHNO ARCH CO., LTD., priority 2021, published 2024).

Tests used:
[1] = biological target: T1, calpain-1 from human erythrocytes (Homo sapiens, UniProt P07384); assay: Fluorescence assay with calpain-1; format: biochemical; conditions: 10 μM probe, 17.4 U/mL calpain-1, 5 mM CaCl2, 37° C., excitation 475 nm, fluorescence 500-550 nm; for increase in fluorescence intensity 10 minutes after the addition of calpain-1: FIG. 5(b)
T1 construct: calpain-1 from human erythrocytes; purchased Merck Millipore 208713; host or cells: human erythrocytes (natural source)
T1 sequence (P07384 1-714): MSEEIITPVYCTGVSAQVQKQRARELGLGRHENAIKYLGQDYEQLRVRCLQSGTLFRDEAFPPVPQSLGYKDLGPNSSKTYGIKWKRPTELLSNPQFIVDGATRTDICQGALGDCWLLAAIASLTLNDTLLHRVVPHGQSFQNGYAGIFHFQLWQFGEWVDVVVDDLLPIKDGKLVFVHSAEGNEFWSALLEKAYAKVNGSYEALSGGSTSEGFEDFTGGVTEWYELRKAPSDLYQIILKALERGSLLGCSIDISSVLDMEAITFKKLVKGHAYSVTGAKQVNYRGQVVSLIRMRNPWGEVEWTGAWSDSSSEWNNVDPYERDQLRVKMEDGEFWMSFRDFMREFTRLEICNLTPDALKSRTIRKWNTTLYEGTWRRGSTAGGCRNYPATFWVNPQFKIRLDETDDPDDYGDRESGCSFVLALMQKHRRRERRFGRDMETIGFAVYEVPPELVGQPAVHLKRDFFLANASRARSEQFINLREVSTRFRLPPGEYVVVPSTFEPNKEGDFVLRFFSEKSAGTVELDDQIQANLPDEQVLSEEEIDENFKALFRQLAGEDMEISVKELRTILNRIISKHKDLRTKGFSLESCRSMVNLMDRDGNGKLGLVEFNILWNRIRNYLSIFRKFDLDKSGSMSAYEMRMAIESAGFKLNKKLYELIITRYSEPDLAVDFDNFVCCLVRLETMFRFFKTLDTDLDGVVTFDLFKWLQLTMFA
T1 sequence (P04632 1-268 partner): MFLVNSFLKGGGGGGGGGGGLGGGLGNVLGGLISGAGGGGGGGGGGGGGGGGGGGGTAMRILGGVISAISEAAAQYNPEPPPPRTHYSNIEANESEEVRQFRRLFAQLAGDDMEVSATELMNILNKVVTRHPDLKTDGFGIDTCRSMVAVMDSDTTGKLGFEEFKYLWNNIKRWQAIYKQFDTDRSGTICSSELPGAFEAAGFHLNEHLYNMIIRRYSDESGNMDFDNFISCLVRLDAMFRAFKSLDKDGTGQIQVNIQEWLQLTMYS
Experimental: The fluorescence assays of Compound 19 and Compound 16 with time were performed. Specifically, 17.4 U/mL of calpain-1 and 5 mM CaCl2 were added to a 50 mM TRIS buffer (pH: 7.4, 2 mM EGTA, 2 mM DTE) containing 10 μM of each of the synthesized fluorescent probes to perform an enzyme reaction at 37° C. Each of the compounds to which calpain-1 and CaCl2 were not added was similarly subjected as a negative control to the measurement.
The fluorescence assays of Compounds 16 to 36 were similarly performed. 50 Units per milliliter (Compounds 16 and 19 to 25) or 17.4 U/mL (Compounds 16 to 18 and 26 to 36) of calpain-1 and 5 mM CaCl2 were added to a 50 mM TRIS buffer (pH: 7.4, 2 mM EGTA, 2 mM DTE) containing 10 μM of each of the synthesized fluorescent probes to perform an enzyme reaction at 37° C.
Next, similar fluorescence assays of Compounds 37, 42, 45, 48, 51, 53, 55, 57, and 59 with calpain-1 were performed. Specifically, 17.4 U/mL of calpain-1 and 5 mM CaCl2 were added to a 50 mM TRIS buffer (pH: 7.4, 2 mM EGTA, 2 mM DTE) containing 10 μM of each of the synthesized fluorescent probes to perform an enzyme reaction at 37° C. Each of the compounds to which calpain-1 was not added was used as a control.
To evaluate an influence of a R^12-L-O— group on the reactivity of each of compounds having the same amino acids with calpain-1, the fluorescence assays of Compounds 37 to 66 with calpain-1 were performed in accordance with the above-mentioned method. Specifically, 17.4 U/mL of calpain-1 and 5 mM CaCl2 were added to a 50 mM TRIS buffer (pH: 7.4, 2 mM EGTA, 2 mM DTE) containing 10 μM of each of the synthesized fluorescent probes to perform an enzyme reaction at 37° C., followed by the measurement of an increase in fluorescence intensity of each of the compounds 10 minutes after the addition of calpain-1.

[2] = system: calpain; assay: Rabbit NMDA injury model, ocular fundus imaging; format: in vivo; conditions: for staining of nerve cells with HMRG in ocular fundus: 30, 45 and 60 minutes after probe into the eye (Compound 19 18.3 μM 19 μL; Compound 16 20 μM 19 μl or 38 μl)
Experimental: Black Dutch rabbits were each subjected to general anesthesia with a mixed liquid of ketamine and xylazine. N-Methyl-D-aspartate (NMDA) (12 mM, 50 μL) or PBS was administered into an eye of the rabbit. 9 Hours after that, the rabbit was anesthetized with a mixed liquid of ketamine and xylazine again, and Compound 19 (18.3 μM, 19 μL), Compound 16 (20 μM, 19 μl), or Compound 16 (20 μM, 38 μl) was administered into the eye. Images of an ocular fundus were taken with Mirante (a confocal scanning diode laser ophthalmoscope manufactured by Nidek Co., Ltd.) before the administration of each of the compounds and after the lapse of a predetermined time from the administration.

[3] = system: SH-SY5Y cells; assay: Live cell imaging of calpain activity in SH-SY5Y cells; format: cell-based; conditions: 5 μM probe, 10 minutes incubation, confocal microscope; FIG. 12
Experimental: Whether or not the improvement in enzymatic reactivity between the compound of the present invention and a calpain confirmed by the above-mentioned experiment remained the same even in a cell was verified. Calpain activity imaging in SH-SY5Y cells was performed on each of Compounds 16 and 19. Specifically, the SH-SY5Y cells (American Type Culture Collection, VA, USA) were cultured in a mixed medium of Dulbecco's modified eagle medium and Ham's F-12 medium (DMEM/F-12; Thermo Fisher Scientific, Inc.) (containing 10% fetal bovine serum (FBS; Thermo Fisher Scientific, Inc., MA, USA) and 100 U/mL penicillin-100 μg/mL streptomycin (PS; Thermo Fisher Scientific, Inc.)) under the conditions of 37° C. and 5% CO2-95% air. 6×10^4 to 8×10^4 Cells/well of the cells were seeded in a multiwell plate (μ-Plate 96 Well; ibidi, Grafelfing, Germany) coated with poly-D-lysine (Thermo Fisher Scientific, Inc.) and laminin (BD Biosciences, CA, USA), and were preincubated in a culture solution. Immediately after the removal of the culture solution in the wells, 200 μL of an assay solution (a culture solution containing a 5 μM probe) was added thereto, and the cells were incubated under the conditions of 37° C. and 5% CO2-95% air. 10 Minutes after that, a bright field image and a fluorescence image were taken with a confocal microscope (LSM 710, Carl Zeiss AG, Oberkochen, Germany).
Calpain activity imaging in SH-SY5Y cells was performed on each of Compounds 20 to 23, Compound 38, and Compound 56 in the same manner as in Example 9. In the case of each of Compounds 20 to 23 and Compound 38, a bright field image and a fluorescence image were taken after 30 minutes of incubation of the cells, and in the case of Compound 56, such images were taken after 20 minutes of incubation thereof.

| Structure (SMILES) | change in fluorescence intensity with time by calpain-1 ([1]; FIG. 4) | number of HMRG-positive cells in PBS rabbits compared to NMDA rabbits ([2]; Compound 19 (19 μL) and Compound 16 (38 μl), FIG. 23) | staining of nerve cells with HMRG in ocular fundus ([2]; rabbits administered NMDA (12 mM, 50 μL)) | staining of nerve cells with HMRG in ocular fundus ([2]; rabbits administered PBS) | calpain activity imaging in SH-SY5Y cells [3] | increase in fluorescence intensity 10 minutes after the addition of calpain-1 [1] |
| --- | --- | --- | --- | --- | --- | --- |
| CSCC[C@H](NC(=O)[C@H](CC(C)C)NC(C)=O)C(=O)Nc1ccc2c(c1)Oc1cc(N)ccc1C21OCc2ccccc21 (stereo partly shown) [Compound 16, reference compound] | functioned as a fluorescent probe for calpain-1 | significantly reduced | many nerve cells were clearly stained with HMRG | substantially no staining of the nerve cells with HMRG | enabled the observation of calpain activity in the SH-SY5Y cells | – |
| CCC(=O)N[C@@H](CC(C)C)C(=O)N[C@@H](CCSC)C(=O)Nc1ccc2c(c1)Oc1cc(N)ccc1C21OCc2ccccc21 (stereo partly shown) [Compound 17] | – | – | – | – | – | reduced in fluorescence intensity as compared to Compound 16 |
| CCCC(=O)N[C@@H](CC(C)C)C(=O)N[C@@H](CCSC)C(=O)Nc1ccc2c(c1)Oc1cc(N)ccc1C21OCc2ccccc21 (stereo partly shown) [Compound 18] | – | – | – | – | – | reduced in fluorescence intensity as compared to Compound 16 |
